Read-outs that look alike come from different tables or passages of the source.
What was measured:
Caco-2 cell monolayers = system: Caco-2 cell monolayers; set-up: method as in PMID 11145220; settings: cited from earlier work
Caco-2 cells = experiment: MTT cell viability assay; assay type: cell-based, human; settings: for reduction of cell viability rate of Caco-2 cells: 80 μM (highest concentration), 36 h, vs control; for cytotoxicity to the growth of Caco-2 cells: 10-80 μM
Method: Cell viability was measured using the 3-(4, 5-dimethylthiazol-2-yl)-2,5-diphenyltetrazolium bromide (MTT) assay. The Caco-2 cells were seeded in 96-well plates at a density of 2 × 10^3 cells/well in DMEM culture medium and cultured at 37 °C for 24 h. After that, the culture medium was replaced with fresh medium containing epimedins A, B, and C at concentrations ranging from 10 μM to 80 μM. Control groups consist of cells in medium (without epimedins A, B, and C) which are processed identically and incubated simultaneously as treated groups. And then the 96-well plates were incubated for 36 h. Subsequently, 10 μL of 5 mg/mL MTT was added to each well and the plates were incubated for another 4 h. The solutions in each well were then removed followed by dissolving the remained formazan crystals in the cells with 100 μL DMSO. The absorbance was measured at 550 nm using a microplate reader (Thermo Labsystems, Helsinki, Finland). The cell viability of each compound was calculated as the percentage of the absorbance relative to that of negative control.

[1] = Bidirectional transport (A-B and B-A) across Caco-2 cell monolayers; assay type: in vitro ADME; settings: human; for efflux ratio at 5 h, 20 µM / efflux ratio at 5 h: Caco-2, pH 7.4; for efflux ratio at 5 h, 20 µM: 20 μM epimedin, no inhibitor, read-out: efflux ratio (PBA/PAB), control without inhibitor; for efflux ratio at 5 h / Papp A→B at 5 h / Papp B→A at 5 h: concentrations of 5–40 μM; for efflux ratio at 5 h: read-out: efflux ratio (PBA/PAB); for Papp A→B at 5 h / Papp B→A at 5 h: Caco-2, HBSS pH 7.4; for Papp A→B at 5 h: A-B direction, read-out: absorptive permeability (PAB); for Papp B→A at 5 h: B-A direction, read-out: secretory permeability (PBA)
Method: The Caco-2 TC7 cell line (at passage 30) is generally similar to the wild-type Caco-2 cell line. […] The conditions for Caco-2 cell culture have been described previously. Cells were cultured in a humidified atmosphere of 5% CO2 and 95% air at 37 °C. The culture medium (Dulbecco’s modified Eagle’s medium ) was supplemented with 10% (v/v) fetal bovine serum, 1% nonessential amino acids, 100 U/mL penicillin, and 100 µg/mL streptomycin. When the cell culture reached 80% confluence, it was rinsed with phosphate-buffered saline and split using trypsin. For transport experiments, the cells were seeded on 3 μm porous polycarbonate cell culture Transwell® inserts from Nunc, which has a surface area of 4.2 cm^2 at a density of 100,000 cells/cm^2. The culture media was replaced every other day. The monolayers were ready for experiments from 19 to 21 days after seeding. Transepithelial electrical resistance (TEER) was used to monitor the integrity and tight junction of the Caco-2 cell monolayer.
Epimedin A, epimedin B, and epimedin C were dissolved in dimethyl sulfoxide (DMSO)-ethanol (v/v = 6/4) to prepare the stock solution (8 mM) for each single compound. The above-mentioned solutions were further diluted with HBSS solution (pH = 7.4) to obtain a series of working standard solutions, and the final concentrations of epimedin A, epimedin B, and epimedin C in the transport samples were 5 µM, 10 µM, 20 µM and 40 µM, respectively. Moreover, the final concentrations of the organic solvent of different samples were controlled below 0.5% to ensure the safety to the cells.
(§1) The transport experiments were performed as described previously. Firstly, the cell monolayers were rinsed thrice with 37 °C HBSS (pH 7.4), and the monolayers were incubated with the buffer for 1 h, then the incubation medium was aspirated. Afterwards, transport from the apical side (AP) to basolateral side (BL): 2.9 mL drug solution were added to the AP side (which was regarded as donor side) and 2.5mL HBSS were added to the BL side (which was regarded as receiver side). Transport from the basolateral side to apical side: 2.9 mL drug solution were added to the BL (donor) side and 2.5 mL HBSS were added to the AP (receiver) side. When the transport inhibitors were used, they were loaded only at the donor side. In the test for each solution, four donor samples (400 μL) and four receiver samples (400 μL) were taken at time intervals of 2, 3, 4, and 5 h after incubation, followed by an immediate replacement with fresh donor solution (400 μL) to the donor side or fresh buffer (400 μL) to the receiver side.
(§2) To each transport sample (400 µL), acetonitrile (100 µL) containing 100 µM of testosterone was added as an internal standard and preservation. The resulting mixture was vortexed for 30 sec and then centrifuged at 15,000 rpm for 15min. The supernatant obtained was determined by ultra-performance liquid chromatography (UPLC) within 24 h. At the end of the transport experiment, the TEER value was remeasured to confirm the integrity of the cell monolayer.
UPLC was used to determine the concentration of the compounds in the transport samples obtained from the Caco-2 model. The conditions for UPLC analysis of epimedin A, epimedin B, and epimedin C in the presence of inhibitors (verapamil or MK571) were as follows: system, Waters Acquity^TM UPLC with photodiode array detector and Empower software; column, Acquity UPLC BEH C18, 1.7 μm, 2.1 × 50 mm (Waters, Milford, MA, USA); mobile phase A, acetonitrile; mobile phase B, water; gradient, 0 to 0.5 min, 25% A, 0.5 to 1.0 min, 25% to 60% A, 1.0 to 2.5 min, 60% to 80% A, 2.5 to 3 min, 80% to 25% A; flow rate, 0.4 mL/min; wavelength, 270 nm (epimedin A, epimedin B and epimedin C), 283nm (MK571), 278 nm (verapamil) and 245 nm (testosterone); column temperature, 30 °C; and injection volume, 5 μL. […]

[2] = system: multidrug resistance proteins (MRPs); experiment: Caco-2 transport in the presence of MK571 (MRP inhibitor); assay type: in vitro ADME, human; settings: 20 μM epimedin, 50 μM MK571
Method: (§3) Meanwhile, verapamil was dissolved in water to 2 mM as well as MK571 and dipyridamole were dissolved in dimethyl sulfoxide (DMSO)-ethanol (v/v = 1/1) to prepare the stock solution (10 mM) when they were used. In addition, testosterone (internal standard) was dissolved in acetonitrile with acetic acid (v/v = 94/6) to 100 µM.
as §1, §2
(§4) UPLC was used to determine the concentration of the compounds in the transport samples obtained from the Caco-2 model. The conditions for UPLC analysis of epimedin A, epimedin B, and epimedin C in the presence of inhibitors (verapamil or MK571) were as follows: system, Waters Acquity^TM UPLC with photodiode array detector and Empower software; column, Acquity UPLC BEH C18, 1.7 μm, 2.1 × 50 mm (Waters, Milford, MA, USA); mobile phase A, acetonitrile; mobile phase B, water; gradient, 0 to 0.5 min, 25% A, 0.5 to 1.0 min, 25% to 60% A, 1.0 to 2.5 min, 60% to 80% A, 2.5 to 3 min, 80% to 25% A; flow rate, 0.4 mL/min; wavelength, 270 nm (epimedin A, epimedin B and epimedin C), 283nm (MK571), 278 nm (verapamil) and 245 nm (testosterone); column temperature, 30 °C; and injection volume, 5 μL.
(§5) In the Caco-2 cell model, rate of transport is obtained from amount transported versus time curve using linear regression. […] The rate of drug transport was calculated by linear regression analysis using Microsoft Excel software (Microsoft Corporation, Redmond, WA, USA ). All data were presented as means ± SD. Statistical comparisons were evaluated by ANOVA test using the SPSS 16 software. Results were considered significant at p < 0.05.

[3] = target: T1, breast cancer resistance protein (BCRP) (Homo sapiens, UniProt Q9UNQ0); experiment: Caco-2 transport in the presence of dipyridamole (BCRP inhibitor); assay type: in vitro ADME; settings: 20 μM epimedin
T1 construct: endogenous in cells; host or cells: Caco-2 TC7 cell monolayers
T1 sequence (Q9UNQ0 1-655): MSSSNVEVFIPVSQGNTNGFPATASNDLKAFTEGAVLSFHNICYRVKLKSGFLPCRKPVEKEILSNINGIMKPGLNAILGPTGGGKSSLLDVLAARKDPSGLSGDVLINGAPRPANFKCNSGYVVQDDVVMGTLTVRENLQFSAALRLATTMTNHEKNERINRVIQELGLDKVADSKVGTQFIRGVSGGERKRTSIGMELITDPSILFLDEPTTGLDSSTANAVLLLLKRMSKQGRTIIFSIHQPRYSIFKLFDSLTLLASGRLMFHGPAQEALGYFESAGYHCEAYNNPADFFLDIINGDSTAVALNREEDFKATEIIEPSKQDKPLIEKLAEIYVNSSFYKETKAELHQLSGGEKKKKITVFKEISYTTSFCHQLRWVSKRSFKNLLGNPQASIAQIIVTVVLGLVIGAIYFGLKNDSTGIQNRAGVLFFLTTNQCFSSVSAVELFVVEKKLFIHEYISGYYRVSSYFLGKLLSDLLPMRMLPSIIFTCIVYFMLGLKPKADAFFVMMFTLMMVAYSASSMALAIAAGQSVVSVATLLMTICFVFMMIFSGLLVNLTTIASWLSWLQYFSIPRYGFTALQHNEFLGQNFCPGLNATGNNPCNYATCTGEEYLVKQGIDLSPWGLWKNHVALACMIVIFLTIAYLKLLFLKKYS
Method: as §3, §1, §2
While analysis the samples in the presence of another inhibitor (dipyridamole), the conditions were as follows: system and column were the same as before; mobile phase A, 90% acetonitrile, 10%water; mobile phase B, 10% acetonitrile, 90% water containing 0.015% (v/v) formic acid and 0.02% (v/v) triethylamine (pH 3.0); gradient, 0–0.3 min, 95% B, 0.3–2.9 min, 95%–65% B, 3.8 min, 0% B, 3.8–4.5 min, 0%–95% B; flow rate, 0.4 mL/min; wavelength, 270 nm (epimedin A, epimedin B and epimedin C), 285 nm (dipyridamole) and 245 nm (testosterone,); column temperature, 30 °C; and injection volume, 5 μL.
as §5

P-glycoprotein (P-gp) = target: T2, P-glycoprotein (P-gp) (Homo sapiens, UniProt P08183); experiment: Caco-2 transport in the presence of verapamil (P-gp inhibitor); assay type: in vitro ADME; settings: 20 μM epimedin; for efflux ratio at 5 h, 20 µM: human
T2 construct: endogenous in cells; host or cells: Caco-2 TC7 cell monolayers
T2 sequence (P08183 whole entry): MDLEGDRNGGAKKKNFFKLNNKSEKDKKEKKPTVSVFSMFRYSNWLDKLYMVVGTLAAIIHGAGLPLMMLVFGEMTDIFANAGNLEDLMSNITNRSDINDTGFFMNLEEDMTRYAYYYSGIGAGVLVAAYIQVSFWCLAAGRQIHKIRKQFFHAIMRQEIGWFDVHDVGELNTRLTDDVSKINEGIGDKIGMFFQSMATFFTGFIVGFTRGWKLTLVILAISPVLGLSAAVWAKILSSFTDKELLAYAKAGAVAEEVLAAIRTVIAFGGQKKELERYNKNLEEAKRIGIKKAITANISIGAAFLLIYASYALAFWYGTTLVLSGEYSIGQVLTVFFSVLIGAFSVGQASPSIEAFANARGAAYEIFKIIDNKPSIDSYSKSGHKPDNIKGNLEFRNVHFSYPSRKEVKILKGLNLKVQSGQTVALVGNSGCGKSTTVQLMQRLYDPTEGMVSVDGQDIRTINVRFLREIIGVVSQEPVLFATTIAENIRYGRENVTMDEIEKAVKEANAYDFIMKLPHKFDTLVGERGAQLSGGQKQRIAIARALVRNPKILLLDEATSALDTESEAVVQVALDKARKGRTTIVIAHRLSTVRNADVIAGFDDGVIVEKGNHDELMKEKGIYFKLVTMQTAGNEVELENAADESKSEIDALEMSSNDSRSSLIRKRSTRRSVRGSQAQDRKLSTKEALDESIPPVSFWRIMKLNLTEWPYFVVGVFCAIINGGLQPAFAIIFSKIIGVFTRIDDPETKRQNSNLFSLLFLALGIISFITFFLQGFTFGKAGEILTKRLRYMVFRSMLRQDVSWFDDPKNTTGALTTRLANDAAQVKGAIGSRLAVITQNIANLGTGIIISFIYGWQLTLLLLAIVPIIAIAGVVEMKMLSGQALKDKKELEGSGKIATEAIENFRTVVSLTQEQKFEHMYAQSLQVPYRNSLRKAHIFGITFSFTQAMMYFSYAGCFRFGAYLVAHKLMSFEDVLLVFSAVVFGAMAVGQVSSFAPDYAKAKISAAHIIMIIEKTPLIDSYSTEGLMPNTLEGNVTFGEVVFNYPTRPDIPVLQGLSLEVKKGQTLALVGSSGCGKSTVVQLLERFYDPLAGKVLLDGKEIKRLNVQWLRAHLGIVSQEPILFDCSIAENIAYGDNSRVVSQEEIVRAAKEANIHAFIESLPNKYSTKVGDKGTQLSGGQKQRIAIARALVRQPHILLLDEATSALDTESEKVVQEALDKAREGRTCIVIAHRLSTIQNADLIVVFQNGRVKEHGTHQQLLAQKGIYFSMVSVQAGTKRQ
Method: as §3, §1, §2, §4, §5

| Structure (SMILES) | permeability of poorly absorbed compound (Caco-2 cell monolayers) | reduction of cell viability rate of Caco-2 cells (Caco-2 cells) [%] | cytotoxicity to the growth of Caco-2 cells (Caco-2 cells) | efflux ratio at 5 h, 20 µM [1] | efflux ratio at 5 h [1] | Papp A→B at 5 h [1] [×10⁻⁶ cm/s] | Papp B→A at 5 h [1] [×10⁻⁶ cm/s] | effect on PAB and PBA (transport) [2] | reduction of efflux ratio [2] [%] | reduction of PBA ([3]; 50 μM dipyridamole) [%] | reduction of efflux ratio ([3]; 50 μM dipyridamole) [%] | reduction of PBA (P-glycoprotein (P-gp); 50 μM verapamil) [%] | further results |
| --- | --- | --- | --- | --- | --- | --- | --- | --- | --- | --- | --- | --- | --- |
| O=C(O)c1cc(/N=N/c2ccc(S(=O)(=O)Nc3ccccn3)cc2)ccc1O [sulfasalazine] | 0.34 × 10^−6 | – | – | – | – | – | – | – | – | – | – | – | – |
| COc1ccc(-c2oc3c(CC=C(C)C)c(OC4O[C@H](CO)[C@@H](O)[C@H](O)[C@H]4O)cc(O)c3c(=O)c2OC2O[C@@H](C)[C@H](O)[C@@H](O)[C@H]2O[C@@H]2O[C@H](CO)[C@@H](O)[C@H](O)[C@H]2O)cc1 (stereo partly drawn) [epimedin A] | – | 7 | nontoxic | 2.04 | > 2 | 0.42 to 0.72 | 1.29 to 1.89 | did not alter | 13 | 38 | 47 | 22 | increase of PAB ([3]; 50 μM dipyridamole): 1.2 fold; PAB relative to control group (P-glycoprotein (P-gp); 50 μM verapamil): 1.5 fold; efflux ratio at 5 h, 20 µM (P-glycoprotein (P-gp); Caco-2, pH 7.4, with verapamil 50 µM, 50 μM verapamil, read-out: efflux ratio in the presence of verapamil): 1.03 |
| COc1ccc(-c2oc3c(CC=C(C)C)c(O[C@@H]4O[C@H](CO)[C@@H](O)[C@H](O)[C@H]4O)cc(O)c3c(=O)c2O[C@@H]2O[C@@H](C)[C@H](O)[C@@H](O)[C@H]2O[C@@H]2OC[C@@H](O)[C@H](O)[C@H]2O)cc1 [epimedin B] | – | 7 | nontoxic | 1.98 | > 2 | 0.39 to 0.73 | 1.19 to 1.76 | increased | 32 | – | 50 | – | effect on absorptive permeability ([3]; 50 μM dipyridamole): increased significantly; effect on secretory permeability ([3]; 50 μM dipyridamole): significantly decreased; efflux ratio at 5 h, 20 µM ([3]; human, Caco-2, pH 7.4, with dipyridamole 50 µM, 50 μM dipyridamole): 1.02; effect on PAB and PBA (P-glycoprotein (P-gp); verapamil): increased; reduction of efflux ratio (P-glycoprotein (P-gp); verapamil): 31% |
| OC[C@@H](O)[C@@H](O)[C@H](O)[C@H](O)CO [mannitol] | 1.7e-06 cm/s | – | – | – | – | – | – | – | – | – | – | – | – |
| COc1ccc(-c2oc3c(CC=C(C)C)c(O[C@@H]4O[C@H](CO)[C@@H](O)[C@H](O)[C@H]4O)cc(O)c3c(=O)c2O[C@@H]2O[C@@H](C)[C@H](O)[C@@H](O)[C@H]2O[C@@H]2O[C@@H](C)[C@H](O)[C@@H](O)[C@H]2O)cc1 [epimedin C] | – | 7 | nontoxic | – | > 2 | 0.42 to 0.72 | 1.2 to 2.28 | did not significantly influence | – | 27 | – | 17 | increase in absorptive permeability (PAB) ([3]; 50 μM dipyridamole): 43%; fold reduction of efflux ratio at 5 h, 20 µM ([3]; human, Caco-2, pH 7.4, with dipyridamole (concentration not stated for this group), dipyridamole): ~1.95; increase in absorptive permeability (PAB) (P-glycoprotein (P-gp); 50 μM verapamil): 109%; efflux ratio at 5 h, 20 µM (P-glycoprotein (P-gp); Caco-2, pH 7.4, with verapamil (concentration not stated for this group), verapamil, read-out: reduction of efflux ratio): ~2.5 |

Source: PMC6270917, “Study on the Mechanism of Intestinal Absorption of Epimedins A, B and C in the Caco-2 Cell Model” (Molecules, 2014)
